Consider one substance from patent US6251605A, “Yeast cells having mutations in Cav1 and uses therefor” (priority 1999, dated 2001).

This test concerns the target T1, Ste2 receptor (Saccharomyces cerevisiae, UniProt D6VTK4).
T1 construct: The wild type strain and a cav1 mutant strain, transformed with the plasmid; endogenous in cells; host or cells: S. cerevisiae wild type and cav1 mutant strains carrying the FUS1-lacZ reporter plasmid
The experiment in a line: FUS1-lacZ β-galactosidase reporter assay, Ste2-mediated signaling. It is filed as cell-based, S. cerevisiae. As to conditions: 30 minutes incubation. On the procedure:
In order to determine whether the CAV1 gene is involved in Ste2-mediated signaling, the effects of a cav1 mutation on the levels of FUS1-lacZ induction in response to o-factor were studied as described below. Transformants were grown to the mid-exponential phase in the medium SC without uracil. 100 μt aliquots of cultures were incubated in 96-well plates in the presence of increasing concentrations of α-factor at 30° C. for 30 minutes prior to assaying β-galactosidase activity. 20 μl of 6X Z-buffer (0.6 M sodium phosphate, pH 7.0, 60 mM KCl, 6 mM MgCl2, 1.6% (v/v) β-mercaptoethanol) containing 10 mM chlorophenolred-β-D-galactoside (CPRG) and 2.5% Triton X-100 was added to each aliquot followed by incubation at room temperature for 30-60 min. The enzymatic reactions were stopped by adding […] of 1 M sodium carbonate and A575 values were determined using a Biomek Plate Reader (Beckman).
The wild type strain and a cav1 mutant strain, transformed with the plasmid Cpl 584 encoding the FUS 1-lacZ reporter gene, were incubated in the presence of α-factor for 30 minutes prior to the β-galactosidase assay. […] Furthermore, the rate of ligand-independent endocytosis of Ste2 receptor, and of Ste3 receptor, respectively, decreased by approximately two-fold in the cav1 mutant. Therefore, an increase in Ste2β mediated signaling may be attributed to the reduced internalization of yeast GPCRs.

T1 sequence (D6VTK4 whole entry): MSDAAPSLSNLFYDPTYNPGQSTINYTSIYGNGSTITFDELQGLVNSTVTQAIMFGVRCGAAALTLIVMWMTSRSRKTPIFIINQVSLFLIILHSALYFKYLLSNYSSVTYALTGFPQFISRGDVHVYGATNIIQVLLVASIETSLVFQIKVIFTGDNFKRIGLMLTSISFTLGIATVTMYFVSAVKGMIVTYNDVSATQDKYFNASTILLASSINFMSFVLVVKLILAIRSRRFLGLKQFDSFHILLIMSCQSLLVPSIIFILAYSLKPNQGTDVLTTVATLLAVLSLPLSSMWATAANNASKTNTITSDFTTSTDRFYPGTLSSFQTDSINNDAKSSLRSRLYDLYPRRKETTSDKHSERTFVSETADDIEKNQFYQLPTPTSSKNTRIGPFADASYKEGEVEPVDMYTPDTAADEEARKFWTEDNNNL

On to α-factor, for which, where the note is “cav1 mutant versus wild type”, the “higher levels of ligand-induced β-galactosidase activity in mutant strain compared with wild type strain” value is 50-100%. For the same substance, under “wild type strain versus cav1 mutant strain”, the “estimated EC50 values for α-factor” value is listed as “virtually identical”.
